Experimental data taken from PMC11762957, “Rescue of Mutant CFTR Channel Activity by Investigational Co-Potentiator Therapy” (Biomedicines, 2025).

Columns and labels:
Type in all cases: cell-based
p.Arg334Trp-CFTR = molecular target: T1, p.Arg334Trp-CFTR (Homo sapiens, UniProt P13569, R334W); assay: Micro-Ussing chamber measurements, polarized CFBE41o- monolayers expressing p.Arg334Trp-CFTR; conditions: after Fsk 0.128 μM
T1 construct: expressed in transfected cells
Experimental: CFBE41o^− cells expressing p.Arg334Trp-CFTR were seeded onto collagen IV-coated Snap-well filter inserts (#734-1646, Corning, New York, NJ, USA) to establish polarized monolayers. When the transepithelial electrical resistance of cells was ≥1000 Ω·cm^2, micro-Ussing chambers were mounted to measure transepithelial voltage (Vte) and transepithelial resistance (Rte), as noted before. Briefly, after the equilibration period, baseline values were recorded and compounds were added sequentially: Fsk (0.128 μM), test compound(s), and Inh-172 (30 μM). Recorded Vte and Rte were used to calculate the equivalent short-circuit current (Isceq) using Ohm’s law: Isc = Vte/Rte.
Next, we validated the data obtained by the HS-YFP assay by measuring short-circuit currents in the polarized monolayers of CFBE41o^− cells expressing p.Arg334Trp-CFTR to assess the alterations in the CFTR-mediated Cl^− current. Upon the activation of the cAMP-dependent CFTR-mediated Cl^− transport by Fsk, there was a small lumen-negative response, indicating the residual function of p.Arg334Trp-CFTR (Figure 3A–F).

p.Ser549Arg-CFTR = molecular target: T2, p.Ser549Arg-CFTR (Homo sapiens, UniProt P13569, S549R); assay: HS-YFP assay, CFBE41o- cells transiently transfected with p.Ser549Arg-CFTR; conditions: c.1645A>C or c.1647T>G, Fsk 5 μM
T2 construct: expressed in transfected cells; host or cells: CFBE41o- cells stably expressing HS-YFP, transient transfection of pcDNA5-CFTR
Experimental: (§1) Site-directed mutagenesis was performed using KOD HOT start DNA polymerase (#71086-3, Sigma-Aldrich, St. Louis, MO, USA), according to manufacturer’s instructions, to insert variants under study (c.613C>T or p.Pro205Ser; c.1645A>C or p.Ser549Arg; c.1647T>G or p.Ser549Arg; c.1652G>A or p.Gly551Asp; c.2834C>T or p.Ser945Leu; and c.4046G>A or p.Gly1349Asp) into CFTR cDNA cloned in the pcDNA5 expression vector. After confirmation by Sanger sequencing, CFBE41o^− cells expressing HS-YFP seeded onto 96-well plates were transfected with 0.1 µg per well of the indicated plasmid. Lipofectamine 3000 (#L3000015, ThermoFischer Scientific, Waltham, MA, USA) was used as the transfection agent diluted in Opti-MEM reduced serum medium (#31985070, ThermoFischer Scientific, Waltham, MA, USA) according to manufacturer’s instructions.
(§2) CFTR activity was determined by the HS-YFP microfluorimetric assay (described in detail in previous studies) using CFBE41o^− cells expressing HS-YFP together with stably expressed p.Arg334Trp-CFTR or transiently transfected with CFTR cDNA (variants p.Pro205Ser, p.Ser549Arg, p.Gly551Asp, p.Ser945Leu, and p.Gly1349Asp) cloned into pcDNA5. […] Thereafter, cells were transferred to a microplate reader (Tecan Infinite 200 Pro) equipped with high-quality excitation (485 ± 20 nm) and emission (535 ± 25 nm) filters for YFP. Each reading consisted of a continuous 14 s fluorescence recording with 2 s before and 12 s after injection of 165 μL of an iodide-containing solution (PBS with Cl^− replaced by I^−; final I^− concentration: 100 mM). Data were normalized to the initial background-subtracted fluorescence. […]
(§3) As CFTR variants with similar defect(s) may respond differently to the same treatment(s), we assessed whether LSO-24 or its derivative LSO-150, alone or in combination(s), could rescue CFTR activity for other variants with gating/conductance defects. […] After 24 h, the cells were acutely stimulated with Fsk plus test compound(s), and the cell fluorescence was recorded before and after the addition of an I^−-containing solution. […]

p.Ser945Leu-CFTR = molecular target: T3, p.Ser945Leu-CFTR (Homo sapiens, UniProt P13569, S945L); assay: HS-YFP assay, CFBE41o- cells transiently transfected with p.Ser945Leu-CFTR; conditions: LSO-24 5 μM, LSO-150 3 μM, Fsk 5 μM
T3 construct: expressed in transfected cells; host or cells: CFBE41o- cells stably expressing HS-YFP, transient transfection of pcDNA5-CFTR
Experimental: as §1, with “Lipofectamine 3000 (#L3000015, ThermoFischer Scientific, Waltham, MA, USA) was used as the transfection agent diluted in Opti-MEM reduced serum medium (#31985070, ThermoFischer Scientific, Waltham, MA, USA) according to manufacturer’s instructions.” left out
as §2

p.Gly551Asp-CFTR = molecular target: T4, p.Gly551Asp-CFTR (Homo sapiens, UniProt P13569, G551D); assay: HS-YFP assay, CFBE41o- cells transiently transfected with p.Gly551Asp-CFTR; conditions: LSO-24 5 μM, LSO-150 3 μM, VX-770 1 μM, ABBV-3067 10 μM, Fsk 5 μM
T4 construct: expressed in transfected cells; host or cells: CFBE41o- cells stably expressing HS-YFP, transient transfection of pcDNA5-CFTR
Experimental: as §1, §2, §3

T2 sequence (P13569 whole entry S549R): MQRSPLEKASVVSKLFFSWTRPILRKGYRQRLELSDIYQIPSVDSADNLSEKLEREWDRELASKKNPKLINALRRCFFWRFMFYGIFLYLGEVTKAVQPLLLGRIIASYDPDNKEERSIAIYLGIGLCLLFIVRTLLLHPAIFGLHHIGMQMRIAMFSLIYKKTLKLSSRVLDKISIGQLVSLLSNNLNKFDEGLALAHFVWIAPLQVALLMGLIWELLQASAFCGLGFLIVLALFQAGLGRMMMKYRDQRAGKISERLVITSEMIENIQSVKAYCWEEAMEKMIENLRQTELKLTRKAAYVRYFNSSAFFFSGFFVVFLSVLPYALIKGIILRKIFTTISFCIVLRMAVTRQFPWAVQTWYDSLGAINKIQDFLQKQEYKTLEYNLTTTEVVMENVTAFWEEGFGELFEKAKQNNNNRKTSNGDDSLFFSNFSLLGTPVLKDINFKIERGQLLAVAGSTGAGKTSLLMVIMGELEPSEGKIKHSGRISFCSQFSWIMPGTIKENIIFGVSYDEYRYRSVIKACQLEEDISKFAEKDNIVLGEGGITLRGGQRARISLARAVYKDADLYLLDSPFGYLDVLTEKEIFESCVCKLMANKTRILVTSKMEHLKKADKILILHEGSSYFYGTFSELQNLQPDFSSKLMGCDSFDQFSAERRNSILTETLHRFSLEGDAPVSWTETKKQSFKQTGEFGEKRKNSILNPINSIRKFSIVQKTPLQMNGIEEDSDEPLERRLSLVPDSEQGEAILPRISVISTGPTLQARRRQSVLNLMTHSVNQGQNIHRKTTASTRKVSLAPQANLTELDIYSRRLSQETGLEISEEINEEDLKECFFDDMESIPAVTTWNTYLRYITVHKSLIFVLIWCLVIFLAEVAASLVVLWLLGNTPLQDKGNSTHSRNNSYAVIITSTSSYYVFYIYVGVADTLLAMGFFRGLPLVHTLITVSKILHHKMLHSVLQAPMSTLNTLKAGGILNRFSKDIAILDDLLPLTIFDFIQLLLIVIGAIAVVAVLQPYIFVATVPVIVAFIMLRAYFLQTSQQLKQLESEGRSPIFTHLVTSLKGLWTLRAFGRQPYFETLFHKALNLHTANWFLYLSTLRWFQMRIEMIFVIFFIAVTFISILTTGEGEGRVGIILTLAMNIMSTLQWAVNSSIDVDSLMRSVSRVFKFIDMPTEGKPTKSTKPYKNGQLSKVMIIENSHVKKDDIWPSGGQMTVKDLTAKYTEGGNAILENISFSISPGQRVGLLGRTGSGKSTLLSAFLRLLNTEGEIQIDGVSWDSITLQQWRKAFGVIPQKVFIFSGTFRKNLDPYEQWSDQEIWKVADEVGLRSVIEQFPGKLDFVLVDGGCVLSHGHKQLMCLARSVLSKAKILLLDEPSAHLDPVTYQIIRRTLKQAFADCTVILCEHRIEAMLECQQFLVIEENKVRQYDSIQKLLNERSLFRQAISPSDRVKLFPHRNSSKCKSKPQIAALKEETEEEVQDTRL
T1 sequence (P13569 whole entry R334W): as the sequence (P13569 whole entry S549R) above, with R334W, R549S counted along it
T3 sequence (P13569 whole entry S945L): as the sequence (P13569 whole entry S549R) above, with R549S, S945L counted along it
T4 sequence (P13569 whole entry G551D): as the sequence (P13569 whole entry S549R) above, with R549S, G551D counted along it

SMILES: CCOC(=O)c1ccc(-n2cc(C(O)c3ccc(Br)cc3)nn2)cc1 (stereo not shown) [LSO-150]
- Isceq, co-administration with VX-770 (p.Arg334Trp-CFTR; VX-770 3 μM + LSO-150 3 μM or LSO-153 5 μM, vs single potentiator): further response
- Isceq (equivalent short-circuit current), single potentiator (p.Arg334Trp-CFTR; acute, LSO-150 3 μM, LSO-153 5 μM, VX-770 3 μM, vs DMSO): increase in Isceq
- Net effect with co-administration of ABBV-3067 (p.Ser549Arg-CFTR; + ABBV-3067 10 μM): increased
- Net effect with co-administration of VX-770 (p.Ser549Arg-CFTR; + VX-770 1 μM): increased
- CFTR activity (fluorescence quenching rate), single compound (p.Ser549Arg-CFTR; LSO-24 5 μM, LSO-150 3 μM): increased CFTR activity
- CFTR activity (fluorescence quenching rate), single compound (p.Ser945Leu-CFTR): increased CFTR activity
- CFTR activity (fluorescence quenching rate), single compound (p.Gly551Asp-CFTR): increased CFTR activity
